Measured values taken from patent US6348477B1, “Anti-herpesvirus compounds and methods for identifying, making and using same” (Boehringer Ingelheim(Canada) Ltd., priority 1995, dated 2002).
pEC50, pIC50: −log10 of the molar value.

Assays:
HSV-1 helicase-primase = molecular target: T1, HSV-1 helicase-primase (Human herpesvirus 1, UniProt P10189+P10236); assay: HSV-1 DNA-dependent ATPase assay (inhibition of HSV-1 helicase-primase); type: biochemical; settings: Group 1 Table 1
T1 construct: made in house; host or cells: Sf21 insect cells triply infected with recombinant baculoviruses
T1 sequence (P10189 whole entry): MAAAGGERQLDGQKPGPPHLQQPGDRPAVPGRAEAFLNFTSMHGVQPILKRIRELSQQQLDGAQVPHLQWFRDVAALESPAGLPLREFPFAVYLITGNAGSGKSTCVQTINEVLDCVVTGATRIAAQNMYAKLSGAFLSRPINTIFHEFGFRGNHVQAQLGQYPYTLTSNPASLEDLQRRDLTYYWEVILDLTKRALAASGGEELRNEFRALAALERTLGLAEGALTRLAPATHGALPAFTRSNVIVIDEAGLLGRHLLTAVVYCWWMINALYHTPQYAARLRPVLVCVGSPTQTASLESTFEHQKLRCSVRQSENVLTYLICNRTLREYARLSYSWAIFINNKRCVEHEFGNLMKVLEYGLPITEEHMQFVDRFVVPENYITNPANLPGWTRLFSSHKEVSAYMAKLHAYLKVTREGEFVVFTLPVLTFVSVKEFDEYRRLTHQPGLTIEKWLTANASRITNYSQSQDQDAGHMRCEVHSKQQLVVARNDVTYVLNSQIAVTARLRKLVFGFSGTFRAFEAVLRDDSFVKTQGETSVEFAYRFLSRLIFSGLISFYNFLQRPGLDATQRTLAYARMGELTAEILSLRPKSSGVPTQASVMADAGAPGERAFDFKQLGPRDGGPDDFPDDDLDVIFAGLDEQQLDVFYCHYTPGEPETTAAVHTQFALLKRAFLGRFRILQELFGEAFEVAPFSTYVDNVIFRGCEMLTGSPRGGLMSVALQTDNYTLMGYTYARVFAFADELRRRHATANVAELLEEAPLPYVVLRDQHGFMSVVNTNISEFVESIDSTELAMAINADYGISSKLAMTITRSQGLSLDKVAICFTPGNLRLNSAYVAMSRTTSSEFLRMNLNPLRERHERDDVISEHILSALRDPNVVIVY
T1 sequence (P10192 whole entry, further chain): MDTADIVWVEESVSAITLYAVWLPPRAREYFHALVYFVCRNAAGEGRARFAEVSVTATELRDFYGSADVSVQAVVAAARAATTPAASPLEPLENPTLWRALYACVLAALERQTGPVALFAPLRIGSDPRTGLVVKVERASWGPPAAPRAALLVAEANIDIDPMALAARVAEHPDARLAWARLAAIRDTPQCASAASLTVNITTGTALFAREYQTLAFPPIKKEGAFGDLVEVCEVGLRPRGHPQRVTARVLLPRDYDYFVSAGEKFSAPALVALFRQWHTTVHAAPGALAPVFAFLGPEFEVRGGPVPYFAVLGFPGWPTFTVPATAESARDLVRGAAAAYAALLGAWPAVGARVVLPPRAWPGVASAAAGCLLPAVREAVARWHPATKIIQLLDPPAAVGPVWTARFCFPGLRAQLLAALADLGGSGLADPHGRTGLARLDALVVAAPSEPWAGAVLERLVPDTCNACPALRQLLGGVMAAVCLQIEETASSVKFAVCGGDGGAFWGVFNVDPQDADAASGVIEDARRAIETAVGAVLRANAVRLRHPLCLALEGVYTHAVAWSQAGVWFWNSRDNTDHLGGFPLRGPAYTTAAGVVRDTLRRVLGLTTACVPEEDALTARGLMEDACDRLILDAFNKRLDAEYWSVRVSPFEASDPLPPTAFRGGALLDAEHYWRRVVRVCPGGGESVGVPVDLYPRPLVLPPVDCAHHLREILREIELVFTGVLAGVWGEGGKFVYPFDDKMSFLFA
T1 sequence (P10236 whole entry): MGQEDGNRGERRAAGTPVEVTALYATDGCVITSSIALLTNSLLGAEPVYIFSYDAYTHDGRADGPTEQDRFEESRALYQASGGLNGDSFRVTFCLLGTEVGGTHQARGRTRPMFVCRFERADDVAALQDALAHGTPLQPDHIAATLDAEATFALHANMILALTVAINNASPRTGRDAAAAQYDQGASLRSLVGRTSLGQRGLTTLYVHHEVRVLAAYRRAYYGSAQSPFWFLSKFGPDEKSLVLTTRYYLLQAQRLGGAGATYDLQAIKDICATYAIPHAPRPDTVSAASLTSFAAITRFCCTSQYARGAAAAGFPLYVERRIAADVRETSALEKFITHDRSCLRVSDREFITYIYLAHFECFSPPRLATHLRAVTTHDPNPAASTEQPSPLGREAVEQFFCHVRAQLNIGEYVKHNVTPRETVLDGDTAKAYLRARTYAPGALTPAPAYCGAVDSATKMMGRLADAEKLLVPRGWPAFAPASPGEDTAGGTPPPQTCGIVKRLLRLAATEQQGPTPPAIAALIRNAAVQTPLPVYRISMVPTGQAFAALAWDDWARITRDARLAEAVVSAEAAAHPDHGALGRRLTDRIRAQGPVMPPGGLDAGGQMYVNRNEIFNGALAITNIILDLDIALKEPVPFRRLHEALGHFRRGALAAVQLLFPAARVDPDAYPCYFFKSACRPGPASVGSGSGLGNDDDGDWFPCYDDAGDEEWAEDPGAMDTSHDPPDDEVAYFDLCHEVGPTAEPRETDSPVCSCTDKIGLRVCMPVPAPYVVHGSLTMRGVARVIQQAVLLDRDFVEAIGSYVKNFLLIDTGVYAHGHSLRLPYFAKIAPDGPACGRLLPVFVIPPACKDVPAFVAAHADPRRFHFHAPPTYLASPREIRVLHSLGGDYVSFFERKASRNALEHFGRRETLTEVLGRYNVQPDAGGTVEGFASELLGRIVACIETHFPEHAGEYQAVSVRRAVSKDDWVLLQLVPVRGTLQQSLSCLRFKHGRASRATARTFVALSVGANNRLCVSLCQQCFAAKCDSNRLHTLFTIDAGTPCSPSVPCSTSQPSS
Procedure, shortened: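 HSV-1 helicase-primase holoenzyme (UL5/UL8/UL52, expressed in baculovirus-infected Sf21 cells, purified; 3 μg/mL) with 4 mM ATP and 25 μM primed single-stranded M13 DNA in HEPES pH 7.5, 5.5 mM MgCl2, 3.3% DMSO, 20 min at 34°. Released phosphate is read with malachite green at 650 nm, and activity is taken from the net absorbance change.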

HCMV (strain AD169) = assay: Inhibition of HCMV replication, ELISA assay (Hs-68 cells, p28); type: cell-based, human cytomegalovirus; settings: Human betaherpesvirus 5, AD169, Hs68; Group 1 Table 1; read-out: ELISA CMV EC50
Procedure, shortened: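 Hs-68 cells infected with HCMV AD169 at MOI 0.01 PFU/cell (2 h adsorption), washed, then incubated with compound for 8 days at 37° in DMEM/5% FBS. Late protein p28 detected in fixed cells by mAb UL99 ELISA (HRP/OPD, 450 nm). EC50 from % inhibition of replication.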

- pIC50 (HSV-1 helicase-primase): 6.46
- pEC50 (HCMV (strain AD169)): 5.68
Compound: Nc1nc(-c2ccc(NC(=O)CN(CCc3ccccc3)C(=O)c3cccnc3)cc2)cs1 [Example 67]
